Test results taken from patent publication US6156700A, “3-(1,2-Benzisothiazol- and isoxazol-5-yl)-2,4(1H,3H)-pyrimidinedione or thione and 3-(1,2-benzisothiazol- and isoxazol-5-yl)-4(3H)-pyrimidinone or thione herbicidal agents” (American Cyanmid Company, priority 1998, dated 2000).

Legend:
[1] = tested on: Soybean, Williams, Glycine max; experiment: Preemergence herbicidal evaluation, GLXMAW; assay type: in vivo, (L.) Merr. cv Williams; details: 0.2500 kg/ha
Text: (§1) Results of herbicide evaluation are expressed on a rating scale (0-9). The scale is based upon a visual observation of plant stand, vigor, malformation, size, chlorosis and overall plant appearance as compared with a control.
(§2) The preemergence herbicidal activity of the test compounds of the present invention is exemplified by the following tests in which the seeds of a variety of monocotyledonous and dicotyledonous plants are separately mixed with potting soil and planted on top of approximately one inch of soil in separate pint cups. After planting, the cups are sprayed with the selected aqueous acetone solution containing test compound in sufficient quantity to provide the equivalent of about 0.0156 to 0.500 kg per hectare of test compound per cup. The treated cups are then placed on greenhouse benches, watered and cared for in accordance with conventional greenhouse procedures. From four to five weeks after treatment, the tests are terminated and each cup is examined and rated according to the rating system provided in Example 185.
(§3) The compounds evaluated are reported by compound number given in Example 185.

[2] = tested on: Morningglory, Ivyleaf, Ipomoea hederacea; experiment: Postemergence herbicidal evaluation, IPOHE; assay type: in vivo, (L.) Jacq.; details: 0.0630 kg/ha
Method in brief: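 Visual 0–9 rating vs untreated control (stand, vigor, malformation, size, chlorosis, overall appearance), scored 4–5 wk post-spray. Two-week-old seedlings; compound in 50/50 acetone/water + 0.5% TWEEN 20, ~0.0157–0.500 kg/ha, 40 psi nozzle.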

[3] = tested on: Soybean, Glycine max; experiment: Preemergence herbicidal evaluation, GLXMA; assay type: in vivo, (L.) Merr.; details: 0.2500 kg/ha
Text: as §1, §2, §3

SMILES: COc1ccc(C)cc1-c1nsc2ccc(-n3c(=O)cc(C(F)(F)F)n(C)c3=O)cc12 [Compound 1, 3-[3-(6-Methoxy-m-tolyl)-1,2-benzisothiazol-5-yl]-1-methyl-6-(trifluoromethyl)-2,4(1H,3H)-pyrimidinedione]
- herbicide rating (0-9) [1]: 7.5
- herbicide rating (0-9) [2]: 9.0

SMILES: COC(=O)COc1ccc(C)cc1-c1nsc2ccc(-n3c(=O)cc(C(F)(F)F)n(C)c3=O)cc12 [Compound 2, Methyl {{2-{5-[3,6-dihydro-3-methyl-4-(trifluoromethyl) -2,6-dioxo-1(2H)-pyrimidinyl]-1,2-benzisothiazol-3-yl]-p-tolyl}oxy}acetate]
- herbicide rating (0-9) [3]: 7.0
- herbicide rating (0-9) [1]: 8.5
- herbicide rating (0-9) [2]: 9.0

SMILES: COC(=O)C(C)Oc1ccc(C)cc1-c1nsc2ccc(-n3c(=O)cc(C(F)(F)F)n(C)c3=O)cc12 (centres unmarked) [Compound 3]
- herbicide rating (0-9) [3]: 4.0
- herbicide rating (0-9) [1]: 5.0
- herbicide rating (0-9) [2]: 9.0
